Tests used:
Assay type in all cases: cell-based
[1] = tested on: Colo 201 cancer cells adhering to vascular endothelial cells of the normal human umbilical cord; experiment: inhibition of adhesion of Colo 201 cancer cells to rhIL1β-stimulated vascular endothelial cells, liposome dispersion; conditions: 11.8 μM equivalent; for Amount of Colo 201 cells adhered (fluorescence intensity): rhIL1β 200 U/ml, 485 nm
Procedure: A solution of 200 μg of phosphatidylcholine, 100 μg of cholesterol, 7.5 μg of dicetyl phosphate and 50 μg of a compound of the invention in a mixture of chloroform/methanol=2/1 (ca. 1 ml) was evaporated under reduced pressure to dryness followed by addition of 0.25 ml of a phosphate-buffered saline solution. The mixture was ultrasonicated (an output of 90 watts) for 5 min. and stirred (a vortex mixer) for 5 min. to form a liposome dispersion.
% Inhibition of adhesion=100-[(fluorescence intensity for rhIL1β-treated group+compound-free or a compound-containing liposome dispersion-treated group)-(fluorescence intensity for rhIL1β-untreated group)/(fluorescence intensity for rhIL1β-treated group-fluorescence intensity for rhIL1β-untreatedgroup)]×100
Vascular endothelial cells of the normal human umbilical cord grown to confluence were stimulated in 24-well plates with 200 U/ml of rhIL1β at 37° C. for 4 hours. After removal of the supernatant by suction liposome dispersions each prepared from 2→3 sialyl Le^x or a compound of the invention in an amount of 11.8 μM equivalent were added except for the rhIL1β-untreated and treated groups. The mixtures were then allowed to react at room temperature for 30 min. Subsequently, colon carcinoma cell line Colo 201 with 2',7'-bis-(carboxyethyl)-5,6-carboxyfluorescene acetoxymethyl ester fluorescent dye enclosed was added at a level of 1×10^6 cells per well followed by centrifugal operation at 100 rpm for 20 min. Each well was washed three times followed by addition of 0.5 ml of 0.5% Triton X-100 and stirring. The contents were divided into 100 μl portions in 96-well plates and measurement was made on a Baxter fluorometer at 485 nm.
4: rhIL1β-treated group+2→3 sialyl Le^x -containing liposome dispersion-treated group
5: rhIL1β-treated group+compound 5E-containing liposome dispersion-treated group (OEG)*
6: rhIL1β-treated group+compound 5A-containing liposome dispersion-treated group (2EG)
7: rhIL1β-treated group+compound 5B-containing liposome dispersion-treated group (3EG)
8: rhIL1β-treated group+compound 5C-containing liposome dispersion-treated group (4EG)
9: rhIL1β-treated group+compound 5D-containing liposome dispersion-treated group (5EG)
* OEG represents a control compound containing no CH2 CH2 O unit. The same shall apply hereinafter.
Amount adhered and % inhibition of adhesion of Colo 201 cancer cells as measured from fluorescence intensity are shown in Table 2 below.

[2] = tested on: HL-60 cancer cells adhering to vascular endothelial cells of the normal human umbilical cord; experiment: inhibition of adhesion of HL-60 cancer cells to rhIL1β-stimulated vascular endothelial cells, oily emulsion; conditions: 20 μg/ml equivalent; for Amount of HL-60 cancer cells adhered (fluorescence intensity): rhIL1β 200 U/ml, 485 nm/535 nm
Procedure: (§1) A mixed solution of 6 mg of egg yolk lecithin (manufactured by Nacalaitesque Inc.), 30 μl of soybean oil J. P. (manufactured by Yoshida Seiyaku), 470 μl of distilled water for injection (manufacturedby Otsuka Seiyaku) and 125 μg of a compound of the invention was ultrasonicated (an output of 90 watts) for 10 min. to prepare an oily emulsion. The oily emulsion was further passed through a polycarbonate membrane filter having 0.2 μm average pore diameter (manufactured by Millipore) to provide an average particle size of 0.2 μm.
Vascular endothelial cells of the normal human umbilical cord grown to confluence were stimulated in 24-well plates with 200 U/ml of rhIL1β at 37° C. for 4 hours. After removal of the supernatant by suction, oily emulsions each prepared from a compound of the invention in an amount of 20 μg/ml equivalent were added except for the rhIL1β-untreated group (sample 1) and the treated groups (samples 2 and 3). The mixtures were then allowed to react at room temperature for 30 min. Subsequently, promyelocytic leukemia cell line HL-60 with 2',7'-bis(carboxyethyl)-5,6-carboxyfluorescene acetoxymethyl ester fluorescent dye enclosed was added at a level of 1×10^6 cells per well followed by centrifugal operation at 100 rpm for 20 min. Each well was washed three times followed by addition of 0.5 ml of 0.5% Triton X-100 and stirring. The contents were divided into 100 μl portions in 96-well plates and measurement was made on a Baxter fluorometer at 485 nm/535 nm.
4: rhIL1β-treated group+2→3 sialyl Lewis X (natural type)-containing oily emulsion dispersion-treated group
5: rhlL1β-treated group+compound 5E-containing oily emulsion dispersion-treated group (OEG)
(§2) 6: rhIL1β-treated group+compound 5A-containing oily emulsion dispersion-treated group (2EG)
(§3) 7: rhIL1β-treated group+compound 5B-containing oily emulsion dispersion-treated group (3EG)
(§4) 8: rhIL1β-treated group+compound 5C-containing oily emulsion dispersion-treated group (4EG)
(§5) 9: rhIL1β-treated group+compound 5D-containing oily emulsion dispersion-treated group (5EG)
% inhibition of adhesion=100-[(fluorescence intensity for rhIL1β-treated group+compound-free or a compound-containing oily emulsion dispersion-treated group)-(fluorescence intensity for rhIL1β-untreated group)/(fluorescence intensity for rhIL1β-treated group-fluorescence intensity for rhIL1β-untreatedgroup)]×100

[3] = tested on: human normal lymphocytes adhering to vascular endothelial cells of the normal human umbilical cord; experiment: inhibition of adhesion of human normal lymphocytes to rhIL1β-stimulated vascular endothelial cells, oily emulsion; conditions: 20 μg/ml equivalent; for Amount adhered (fluorescence intensity): rhIL1β 200 U/ml, 485 nm/535 nm
Procedure: as §1
Vascular endothelial cells of the normal human umbilical cord grown to confluence were stimulated in 24-well plates with 200 U/ml of rhIL1ββat 37° C. for 4 hours. After removal of the supernatant by suction, oily emulsions each prepared from a compound of the invention in an amount of 20 μg/ml equivalent were added except for the rhIL1β-untreated (Sample 1) and treated groups (Samples 2 and 3). The mixtures were then allowed to react at room temperature for 30 min. Subsequently, human normal lymphocytes with 2',7'-bis(carboxyethyl)-5,6-carboxyfluorescence acetoxymethyl ester fluorescent dye enclosed was added at a level of 2×10^6 cells per well followed by centrifugal operation at 100 rpm for 20 min. Each well was washed three times followed by addition of 0.5 ml of 0.5% Triton X-100 and stirring. The contents were divided into 100 μl portions in 96-well plates and measurement was made on a Baxter fluorometer at 485 nm/535 nm.
4: rhIL1β-treated group+2→3 sialyl Lewis X-containing oily emulsion dispersion-treated group
5: rhIL1β-treated group+compound 5E-containing oily emulsion dispersion-treated group (OEG)
as §2, §3, §4, §5
Amount adhered and percent inhibition of adhesion of human normal lymphocytes as measured from fluorescence intensity are shown in Table 5 below.

Structure (SMILES)	Amount of Colo 201 cells adhered (fluorescence intensity) [1]	Amount of HL-60 cancer cells adhered (fluorescence intensity) [2]	Amount adhered (fluorescence intensity) [3]	% Inhibition of adhesion ([1]; Colo 201 cells) [%]	% Inhibition of adhesion ([2]; HL-60 cells) [%]	% Inhibition of adhesion [3] [%]
CCCCCCCCCCCCC/C=C/[C@@H](O)[C@H](CO[C@@H]1O[C@H](CO)[C@@H](O[C@@H]2O[C@H](CO)[C@H](O)[C@H](O[C@@H]3O[C@H](CO)[C@@H](O[C@@H]4O[C@H](CO)[C@H](O)[C@H](O[C@]5(C(=O)O)C[C@H](O)[C@@H](NC(C)=O)[C@H]([C@H](O)[C@H](O)CO)O5)[C@H]4O)[C@H](O[C@@H]4O[C@@H](C)[C@@H](O)[C@@H](O)[C@@H]4O)[C@H]3NC(C)=O)[C@H]2O)[C@H](O)[C@H]1O)NC(=O)CCCCCCCCCCCCCCCCC [2→3 sialyl Le^x, reference compound]	448512	16869	9320			
CCCCCCCCCCCCCCC(CCCCCCCCCCCCCC)C(=O)Nc1ccc(CO[C@@H]2O[C@H](CO)[C@@H](O[C@@H]3O[C@H](CO)[C@H](O)[C@H](O[C@]4(C(=O)O)C[C@H](O)[C@@H](NC(C)=O)[C@H]([C@H](O)[C@H](O)CO)O4)[C@H]3O)[C@H](O[C@@H]3O[C@@H](C)[C@@H](O)[C@@H](O)[C@@H]3O)[C@H]2O)cc1 [Compound 5E, para-(2-tetradecylhexadecanoyl)-aminobenzyl-O-(5-acetamido-3,5-dideoxy-D-glycero-α-D-galacto-2-nonulopyranosylonic acid)-(2→3)-O-β-galactopyranosyl-(1→4)-[O-α-L-fucopyranosyl-(1→3)-β-D-glucopyranoside], reference compound]	595253	24307	14781	9.68	35.6	46.6
